Common to all, as to format: in vivo
The subject of experiment [1] is Female New Zealand rabbits. Nature of the experiment: Pelvic nerve-stimulated female genital blood flow, anaesthetised rabbit model of sexual arousal. Particulars: 15 mg/kg sc. On the procedure:
(§1) Female New Zealand rabbits (2.5 kg) were pre-medicated with a combination of Medetomidine (Domitor®) 0.5 ml/kg im., and Ketamine (Vetalar®) 0.25 ml/kg i.m. whilst maintaining oxygen intake via a face mask. The rabbits were tracheotomised using a Portex™ uncuffed endotracheal tube 3 ID., connected to ventilator and maintained at a ventilation rate of 30-40 breaths per minute, with an approximate tidal volume of 18-20 ml, and a maximum airway pressure of 10 cm H2O. Anaesthesia was then switched to Isoflurane and ventilation continued with O2 at 2 l/min. The right marginal ear vein was cannulated using a 23G or 24G catheter, and Lactated Ringer solution perfused at 0.5 ml/min. The rabbit was maintained at 3% Isoflurane during invasive surgery, dropping to 2% for maintenance anaesthesia.
The left groin area of the rabbit was shaved and a vertical incision was made approximately 5 cm in length along the thigh. […] Systolic and diastolic pressures were measured, and the mean arterial pressure calculated using the formula (diastolic ×2+systolic)÷3. Heart rate was measured via the pulse oxymeter and Po-ne-mah data acquisition software system (Ponemah Physiology Platform, Gould Instrument Systems Inc). […] A frequency response curve was determined at the start of each experiment in order to determine the optimum frequency to use as a sub-maximal response, normally 4 Hz. […]

A further experiment has as its system Male New Zealand rabbits. As to the kind of experiment: Pelvic nerve-stimulated penile intracavernosal pressure, anaesthetised rabbit model of erection. Particulars: Compound 3 (10 mg/kg sc) concomitant with selective PDE5 inhibitor (1 mg/kg iv), compared with same dose of Compound 3 alone. As for the experimental part:
as §1, with “Male” for “Female”, “(˜2.5” for “(2.5”, “i.m.,” for “im.,”, “anaesthesia. The left jugular vein was exposed, isolated and then cannulated with a PVC catheter (17G) for the infusion of drugs and compounds.” for “anaesthesia.”
The left groin area of the rabbit was shaved and a vertical incision was made approximately 5 cm in length along the thigh. […] Systolic and diastolic pressures were measured, and the mean arterial pressure calculated using the formula (diastolic ×2+systolic)[…]. Heart rate was measured via the pulse oxymeter and Po-ne-mah data acquisition software system (Ponemah Physiology Platform, Gould Instrument Systems Inc). […]

Another experiment relates to conscious male rat. As to the kind of experiment: Penile intracavernosal pressure in the conscious male rat (telemetry). As for the experimental part: In addition to treating women with FSD, bombesin antagonists will be useful in treating male erectile dysfunction (MED. Both the non-selective BB1/2 antagonists (Compound 1; 10 mg/kg sc) and the selective BB I receptor antagonist (Compound 3; 15 mg/kg sc) is pro-erectile in a conscious rat model of penile erection (FIGS. 24 and 25). Erectile responses were recorded by measuring intracavemosal pressure using surgically implanted telemetric device. The specific details the surgical procedures, data acquisition and analysis can be found in detail in Bernabe 1999.
Compound 1 and compound 3 were dissolved in 50% O-cyclodextrin in saline. They were administered at a dose of 15 mg/kg subcutaneously (sc). […] These increases equate to penile erection. Both Compounds 1 and 3 induced a number of erections in a similar manner to those observed with apomorphine or melanotan-II—both of which are clinically proven agents that are effective in the treatment of MED. Moreover the amplitude of the increases observed were similar to those observed with apomorphine or melanotan-II. The mechanism of action is thought to be similar to the effects on female genital flow ie CNS potentiation of the descending neuronal pathways that control penile erection.

SMILES strings stand for the structures.

With `C[C@@](Cc1c[nH]c2ccccc12)(NC(=O)Nc1ccc([N+](=O)[O-])cc1)C(=O)NCC1(c2ccc(N)cc2)CCCCC1` [Compound 3, (2S)-N-{[1-(4-aminophenyl)cyclohexyl]methyl}-3-(1H-indol-3-yl)-2-methyl-2-{[(4-nitroanilino)carbonyl]amino}propanamide], the “pelvic-nerve stimulated (PNS) increases in genital (vaginal and clitoral) blood flow” value in experiment [1] is “potent enhancer”. For the same molecule, the “pelvic nerve-stimulated intracavernosal pressure (ICP), combination with PDE5 inhibitor” value in the experiment with Male New Zealand rabbits is “marked enhancement”. The “penile erection (erectile response)” value in the experiment on conscious male rat (Compound 1 10 mg/kg sc, Compound 3 15 mg/kg sc, conscious rat model) is “pro-erectile”. In addition, in the experiment on conscious male rat (one hour after 10 mg/kg sc Compound 1, 45 minutes after 15 mg/kg sc compound 3, conscious rat), the intracavernosal pressure entry is “significant increases in intracavernosal pressure”.

(Values after US20040087561A1, “Treatment of sexual dysfunction” (priority 2000, published 2004).)
